Measured values taken from US6313090A, “Methods for treating parasitic infection using thiopeptides” (The United States of America as represented by the …, priority 2000, dated 2001).

What was measured:
[1] = test system: P. falciparum (strain 3D7); assay: Assay of growth inhibition, [3H]hypoxanthine incorporation; type: cell-based
Method: Assay of Growth inhibition. Thiostrepton (1525 u/mg; Calbiochem) and anisomycin (Sigma) were dissolved at 100 mM in DMSO (Pierce). P. falciparum (strain 3D7) (44) was maintained in culture with human erythrocytes (5% hematocrit) in RPMI-1640 (Life Technologies) supplemented with HEPES and sodium bicarbonate and human sera (10%) under standard conditions (18,19). The growth inhibition assay was conducted as described (20). Briefly, the parasitemia was adjusted to 0.1% parasitemia, 2.5% hematocrit and 200 μl aliquots placed in wells of a microtitre dish. Serial dilutions of drugs were made in RPMI. Thiostrepton was diluted to 10 mM in DMSO before the serial dilutions in RPMI. Aliquots (20 μl) were added in triplicate to the cultures in the microtitre plate, mixing well. At the highest concentrations (final 0.2mM), thiostrepton precipitates. After incubation for 48 hours under standard conditions, [2,8-^3 H]-hypoxanthine Moravek Biochemicals, 12.5 Ci/mmol) in RPMI (20 μl, 0.05 mCi/ml) was added to each well. After incubation for a further 24 hours, the cultures were lysed and incorporated radioactivity was measured with an automated counter.
Assay of inhibition. The effect of thiostrepton on growth and protein synthesis of P. falciparum was compared to anisomycin, since the effect of both of these drugs is on protein synthesis. To assay the effect of thiostrepton and anisomycin on the growth of P. faciparum, inhibition of the uptake and incorporation of [^3 H]hypoxanthine was quantitated at serial dilutions of the drugs on an in vitro culture of P. falciparum. […] Inhibition of the incorporation of [^3 H]leucine was also tested at the same dilutions of the drugs. For anisomycin, total protein synthesis was inhibited 50% at the IC50 (0.511 μM) for inhibition of growth, with the concentration-response almost superimposable on that of protein synthesis. […] This would occur if organelle protein synthesis was the target of inhibition (29,30).

C. parvum = assay: In vivo testing, SCID mice with acute C. parvum infection; design: species or system Cryptospordium parvum
Method: SCID mice (Taconic Farms, Germantown, N.Y.), preconditioned with monoclonal antibodies to interferon as described (41), were given an acute infection of C. parvum (10^7 oocysts given orally). A total of five mice in two groups were used. One group received 500 mg/kg/day (in two doses of 250 mg/kg) of thiostrepton six days post-infection and the other group received a placebo. Treatment lasted ten days and oocyst shedding was measured by counting the number of oocysts in 30 fields under high power microscopy of acid-fast stained fecal smears and calculating the mean for each group as described (41). […] Mucosal scores describe the extent of mucosal infection detected in formalin-fixedsections of tissue samples from various gut sites (pyloric region of stomach, liver, gallbladder, mid-small intestine, terminal ileum, cecum and colon) taken during necropsy. Scoring was as follows: 0 (no infection) to 5 (maximal infection) and was expressed as the combined score of the number of gut sites examined.

C=C(NC(=O)C(=C)NC(=O)c1csc(C2=N[C@@H]3c4csc(n4)[C@H]4NC(=O)c5csc(n5)[C@H]([C@](C)(O)[C@@H](C)O)NC(=O)[C@H]5CSC(=N5)/C(=C/C)NC(=O)[C@H]([C@@H](C)O)NC(=O)c5csc(n5)[C@]3(CC2)NC(=O)[C@H](C)NC(=O)C(=C)NC(=O)[C@H](C)NC(=O)[C@H]([C@@H](C)CC)N[C@@H]2C=Cc3c([C@H](C)O)cc(nc3[C@H]2O)C(=O)O[C@@H]4C)n1)C(N)=O [Thiostrepton, thiostrepton]
IC50 ([1]; Plasmodium falciparum, 3D7, in vitro culture, [3H]hypoxanthine uptake and incorporation): 1.8 µM | IC99 (near) ([1]; concentration used, near the IC99 value, this study): ~8 µM | Mucosal score (C. parvum; 2 × 250 mg/kg, combined score of gut sites, 0 (no infection) to 5 (maximal infection) per site): 9.8 | oocyst shedding compared to placebo (C. parvum; SCID mice, 500 mg/kg/day (two doses of 250 mg/kg), ten days, FIG. 1): significantly reduced oocyst shedding | Oocyst shedding, % Inhib (C. parvum; last day of 10 day treatment, 2 × 250 mg/kg): 78.9% | Oocyst shedding, Mean (C. parvum; last day of 10 day treatment, 2 × 250 mg/kg, oocysts in 30 fields of fecal smears): 11.2
